{"source": "patent US9452217B2", "about": "“Methods for potentiating immune response for the treatment of infectious diseases and cancer” (Nitor Therapeutics, priority 2013, dated 2016)", "key": {"human TLR7": {"biological_target": "T1, human TLR7 (Homo sapiens, UniProt Q9NYK1)", "T1 construct": "expressed in transfected cells; host or cells: HEK293", "T1 sequence (Q9NYK1 27-1049)": "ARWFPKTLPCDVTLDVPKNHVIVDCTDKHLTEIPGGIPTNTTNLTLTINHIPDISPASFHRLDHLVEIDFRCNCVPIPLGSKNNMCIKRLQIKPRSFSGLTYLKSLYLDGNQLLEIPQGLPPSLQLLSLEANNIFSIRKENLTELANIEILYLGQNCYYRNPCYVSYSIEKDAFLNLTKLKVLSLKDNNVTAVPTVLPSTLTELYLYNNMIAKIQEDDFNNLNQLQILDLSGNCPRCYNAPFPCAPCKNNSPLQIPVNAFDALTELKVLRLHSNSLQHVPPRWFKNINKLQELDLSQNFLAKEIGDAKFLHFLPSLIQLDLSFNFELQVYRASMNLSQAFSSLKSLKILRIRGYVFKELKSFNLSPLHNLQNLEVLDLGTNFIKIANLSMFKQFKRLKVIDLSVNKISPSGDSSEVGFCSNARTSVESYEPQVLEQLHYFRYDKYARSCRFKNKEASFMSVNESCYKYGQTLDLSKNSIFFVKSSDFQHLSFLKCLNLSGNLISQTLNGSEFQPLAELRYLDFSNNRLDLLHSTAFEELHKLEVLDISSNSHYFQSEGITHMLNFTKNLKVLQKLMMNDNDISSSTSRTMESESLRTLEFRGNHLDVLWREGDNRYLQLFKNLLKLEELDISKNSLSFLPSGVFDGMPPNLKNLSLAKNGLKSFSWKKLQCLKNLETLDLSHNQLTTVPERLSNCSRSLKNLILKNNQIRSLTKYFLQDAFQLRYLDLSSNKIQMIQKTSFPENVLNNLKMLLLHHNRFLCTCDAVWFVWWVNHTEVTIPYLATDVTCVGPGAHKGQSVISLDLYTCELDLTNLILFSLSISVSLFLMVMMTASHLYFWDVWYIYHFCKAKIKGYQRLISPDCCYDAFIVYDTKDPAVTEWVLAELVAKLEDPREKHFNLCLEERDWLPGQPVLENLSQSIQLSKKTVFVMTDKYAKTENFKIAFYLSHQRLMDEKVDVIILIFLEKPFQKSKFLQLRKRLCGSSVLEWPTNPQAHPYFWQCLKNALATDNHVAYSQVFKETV", "assay": "TLR ligand screening: NF-κB activation (SEAP reporter) in HEK293 cells expressing TLR7", "format": "cell-based", "settings": "one concentration: NTR001 10 uM, Inosine 100 uM; FIG. 2", "description": "(§1) Method: TLR stimulation is tested by assessing NF-κB activation in HEK293 cells expressing a given TLR. The Secreted Embryonic Alkaline Phosphatase (SEAP) reporter is under the control of a promoter inducible by the transcription factor NF-κB. This reporter gene allows the monitoring of signaling through the TLR, based on the activation of NF-κB. The compounds are evaluated at one concentration and compared to control ligands. This step is performed in triplicate."}, "human TLR3": {"biological_target": "T2, human TLR3 (Homo sapiens, UniProt O15455)", "T2 construct": "expressed in transfected cells; host or cells: HEK293", "T2 sequence (O15455 24-904)": "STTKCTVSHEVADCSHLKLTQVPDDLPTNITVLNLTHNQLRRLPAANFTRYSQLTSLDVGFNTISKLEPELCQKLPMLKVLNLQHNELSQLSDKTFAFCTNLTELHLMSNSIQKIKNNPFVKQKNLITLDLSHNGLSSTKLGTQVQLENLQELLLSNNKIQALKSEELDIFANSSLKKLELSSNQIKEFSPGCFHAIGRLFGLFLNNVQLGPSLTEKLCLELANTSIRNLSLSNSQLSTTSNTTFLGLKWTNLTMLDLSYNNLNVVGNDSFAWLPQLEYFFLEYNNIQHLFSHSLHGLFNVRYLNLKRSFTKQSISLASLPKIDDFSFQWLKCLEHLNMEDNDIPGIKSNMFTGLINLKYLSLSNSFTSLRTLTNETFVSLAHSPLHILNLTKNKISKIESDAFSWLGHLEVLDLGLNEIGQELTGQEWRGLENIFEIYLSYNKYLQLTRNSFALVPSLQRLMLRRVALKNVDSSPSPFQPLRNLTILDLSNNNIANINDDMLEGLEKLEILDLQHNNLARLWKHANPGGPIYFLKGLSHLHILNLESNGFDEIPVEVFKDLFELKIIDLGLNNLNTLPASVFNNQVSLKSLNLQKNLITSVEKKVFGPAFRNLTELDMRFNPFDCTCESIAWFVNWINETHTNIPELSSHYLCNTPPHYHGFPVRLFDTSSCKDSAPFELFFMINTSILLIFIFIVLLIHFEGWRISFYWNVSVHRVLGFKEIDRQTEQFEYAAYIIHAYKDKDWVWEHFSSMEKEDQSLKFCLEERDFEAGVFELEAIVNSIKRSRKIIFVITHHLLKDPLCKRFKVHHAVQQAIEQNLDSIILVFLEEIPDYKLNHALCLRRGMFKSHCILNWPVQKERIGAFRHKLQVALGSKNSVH", "assay": "TLR ligand screening: NF-κB activation (SEAP reporter) in HEK293 cells expressing TLR3", "format": "cell-based", "settings": "one concentration: NTR001 10 uM, Inosine 100 uM; FIG. 2", "description": "as §1"}}, "data": [{"smiles": "OC[C@H]1O[C@@H](n2cnc3c(O)ncnc32)[C@H](O)[C@@H]1O", "note": "[Inosine]", "values": [{"measurement": "stimulatory effect on human TLR7", "setting": "human TLR7", "result": "do not exhibit a stimulatory effect"}, {"measurement": "stimulatory effect on human TLR3", "setting": "human TLR3", "result": "do not exhibit a stimulatory effect"}]}, {"smiles": "O=c1[nH]cnc2c([C@@H]3N[C@H](CO)[C@@H](O)[C@H]3O)c[nH]c12", "note": "[NTR001, 7-[(2S,3S,4R,5R)-3,4-dihydroxy-5-(hydroxymethyl)-2-pyrrolidinyl]-1,5-dihydro-4H-pyrrolo [3,2-d]pyrimidin-4-one]", "values": [{"measurement": "stimulatory effect on human TLR7", "setting": "human TLR7", "result": "do not exhibit a stimulatory effect"}, {"measurement": "stimulatory effect on human TLR3", "setting": "human TLR3", "result": "do not exhibit a stimulatory effect"}]}]}
